Patent US9028856B2, “Synergistic pesticide compositions” (priority 2008, dated 2015)

Legend:
[1] = test system: housefly, Musca domestica; assay: Housefly continuous exposure on treated glazed tile (paper cup arena); assay type: in vivo; conditions: Table 58, housefly, glazed tile, continuous exposure; for Average % Knockdown & Mortality after 1 hr: adjuvant = Compound A 1% + Compound B 0.5%
Description: Treatments were allowed to dry overnight. The housefly testing arena consisted of a 16 oz. paper cup where the bottom of the cup was removed and replaced with a piece of standard window screen. Ten adult houseflies (mixed ratio) were placed in each cup and covered with a 4″×5″ index card to prevent escape. Houseflies were continuously exposed to the treatment by inverting the testing arena and sliding the cup from the index card to the treated tile surface. Treatments were replicated a minimum of three times.

[2] = test system: Argentine ant, Linepithema humile; assay: Knockdown/mortality of ant workers under continuous exposure on treated glazed tile; conditions: continuous exposure; for Average % Mortality after 15 min: adjuvant = Compound A 1% + Compound B 0.5%
Outline: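 0.5% AI imidacloprid in acetone, alone or with 0.1, 1.0 or 5.0% additive (benzenepropanoic acid, oleic acid, methyl oleate, methyl linoleate, methyl palmitate or BHA), 1 ml dried overnight on glazed tile (~161 cm^2). Ten workers confined under continuous exposure, water from 3 h; knockdown/mortality scored at intervals and 24 h; ≥3 replicates.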

[3] = test system: Red Imported Fire ant (RIFA), Solenopsis invicta; assay: as above; assay type: in vivo; conditions: for Average % Mortality after 1 hr / Average % Mortality after 1.5 hr / Average % Mortality after 2 hr / Average % Mortality after 3 hr / Average % Mortality after 30 min: Table 60, Red Imported Fire ant, continuous exposure; for Average % Mortality after 30 min: adjuvant = Compound A 1% + Compound B 0.5%
Description: Treatments were allowed to dry overnight. […] Treatments were replicated minimum three times.
(§1) Treatments were allowed to dry overnight. […] Treatments were replicated a minimum of three times.

[4] = test system: susceptible/normal German cockroach (Monheim strain), Blattella germanica; assay: Knockdown/mortality of male cockroaches under continuous exposure on treated glazed tile; assay type: in vivo; conditions: glazed tile; for Average % Knockdown & Mortality after 3 hr / Average % Knockdown & Mortality after 5 hr / Average % Knockdown & Mortality after 24 hr / Average % Knockdown & Mortality after 1 hr: Table 61, German cockroach (Monheim), continuous exposure; for Average % Knockdown & Mortality after 1 hr: adjuvant = Compound A 1% + Compound B 0.5%
Outline: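 Male cockroaches continuously exposed on treated glazed tile, dried overnight before exposure; at least three replicates. Knockdown/mortality scored at intervals from 5 or 10 min, over runs lasting 20 min to 24 h depending on test.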

[5] = test system: Odorous House ant, Tapinoma sessile; assay: Knockdown/mortality of ant workers under continuous exposure on treated glazed tile; assay type: in vivo; conditions: Table 59, Odorous House ant, glazed tile, continuous exposure; for Average % Knockdown & Mortality after 15 min: adjuvant = Compound A 1% + Compound B 0.5%
Outline: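 Each tile surface (about 5″×5″) was treated, left to dry overnight and tested in a minimum of three replicates.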

[6] = test system: bait averse/resistant German cockroach (IHOP strain), Blattella germanica; assay: Knockdown/mortality of male cockroaches under continuous exposure on treated glazed tile; assay type: in vivo; conditions: German cockroach IHOP
Protocol: Treatments were allowed to dry overnight. […] Treatments were replicated a minimum of three times. Evaluations for cockroach knockdown/mortality were made at various intervals for 1 hour and at 24 hours after exposure.
Treatments were allowed to dry overnight. […] Evaluations for cockroach knockdown/mortality were made at various intervals and at 60 minutes after exposure.
as §1

[7] = Table 57, Argentine ant, glazed tile

Compound | Average % Knockdown & Mortality after 3 hr [1] | Average % Knockdown & Mortality after 5 hr [1] | Average % Knockdown & Mortality after 7 hr [1] | Average % Knockdown & Mortality after 24 hr [1] | Average % Knockdown & Mortality after 1 hr [1] | Average % Mortality after 30 min [2, 7] | Average % Mortality after 45 min [2, 7] | Average % Mortality after 60 min [2, 7] | Average % Mortality after 15 min [2, 7] | Average % Mortality after 1 hr ([3]; glazed tile) | Average % Mortality after 1.5 hr ([3]; glazed tile) | Average % Mortality after 2 hr ([3]; glazed tile) | Average % Mortality after 3 hr ([3]; glazed tile) | Average % Mortality after 30 min ([3]; glazed tile) | Average % Knockdown & Mortality after 3 hr [4] | Average % Knockdown & Mortality after 5 hr [4] | Average % Knockdown & Mortality after 24 hr [4] | Average % Knockdown & Mortality after 1 hr [4] | Average % Knockdown & Mortality after 30 min [5] | Average % Knockdown & Mortality after 45 min [5] | further results
CC[S+]([O-])c1c(C#N)nn(-c2c(Cl)cc(C(F)(F)F)cc2Cl)c1N (stereo not shown) [Ethiprole (0.01%)] | 0% | 0% | 3% | 100% | 0% | 0% | 0% | 0% | 0% | 0% | 0% | 0% | 3% | 0% | 0% | 7% | 13% | 0% | 0% | 0% | Average % Mortality after 10 min ([2]; Table 54, Trial 1, acetone solution on glazed tile): 0%; Average % Mortality after 30 min ([2]; Table 54, Trial 1, glazed tile): 0%; Average % Mortality after 60 min ([2]; Table 54, Trial 1, glazed tile): 0%; Average % Mortality after 90 min ([2]; Table 54, Trial 1, glazed tile): 0%; Average % Mortality after 2 hr ([2]; Table 54, Trial 1, glazed tile): 0%; Average % Mortality after 4 hr ([2]; Table 54, Trial 1, glazed tile, 4 hr): 16%; Average % Mortality after 24 hr ([2]; Table 54, Trial 1, glazed tile): 100%; Average % Mortality after 10 min ([2]; Table 55, Trial 2, glazed tile): 0%; Average % Mortality after 30 min ([2]; Table 55, Trial 2, glazed tile): 0%; Average % Mortality after 60 min ([2]; Table 55, Trial 2, glazed tile): 0%; Average % Mortality after 90 min ([2]; Table 55, Trial 2, glazed tile): 0%; Average % Mortality after 2 hr ([2]; Table 55, Trial 2, glazed tile): 0%; Average % Mortality after 3 hr ([2]; Table 55, Trial 2, glazed tile, 3 hr): 6%; Average % Mortality after 24 hr ([2]; Table 55, Trial 2, glazed tile): 72%; Average % Knockdown & Mortality after 60 min [5]: 0%; Average % Knockdown & Mortality after 2 hr [5]: 3%; Average % Knockdown & Mortality after 15 min [5]: 0%
CC1(C)C(C=C(Cl)Cl)C1C(=O)OCc1cccc(Oc2ccccc2)c1 (stereo not shown) [permethrin, reference compound] | – | – | – | – | – | – | – | – | – | – | – | – | – | – | – | – | – | – | – | – | toxicity / efficacy of the substance alone (summary in words) [6]: very fast acting; toxicity / efficacy of the substance alone (summary in words) ([3]; RIFA, glazed tile): active; time at which near 100% mortality was achieved ([3]; permethrin 0.5% AI with or without adjuvant (FIG. 39)): about 13 minutes; toxicity / efficacy of the substance alone (summary in words) ([4]; German cockroach Monheim): effective
CC[S+]([O-])c1c(C#N)nn(-c2c(Cl)cc(C(F)(F)F)cc2Cl)c1N (stereo not shown) [Ethiprole (0.1%)] | 0% | 3% | 10% | 100% | 0% | 0% | 0% | 0% | 0% | 0% | 0% | 0% | 10% | 0% | 27% | 33% | 80% | 0% | 0% | 0% | Average % Knockdown & Mortality after 60 min [5]: 0%; Average % Knockdown & Mortality after 2 hr [5]: 0%; Average % Knockdown & Mortality after 15 min [5]: 0%
